Consider nine compounds from publication PMC6222820, “Synthesis of New Triarylpyrazole Derivatives Possessing Terminal Sulfonamide Moiety and Their Inhibitory Effects on PGE2 and Nitric Oxide Productions in Lipopolysaccharide-Induced RAW 264.7 Macrophages” (Molecules : A Journal of Synthetic Chemistry and Natural …, 2018).

In series [1] the test system is LPS-induced RAW 264.7 macrophages. The experiment in a line: Nitric oxide (NO) production inhibition in LPS-induced RAW 264.7 macrophages (nitrite determination). Particulars: for inhibition at 1 µM: RAW264.7, 1 µM; for inhibition at 5 µM: RAW264.7, 5 µM; for inhibition at 10 µM: RAW264.7, 10 µM. Format: cell-based. On the procedure: The ability of a certain molecule to inhibit the production of inflammatory mediator(s) is one of successful approach to treatment both chronic and acute inflammation.
(§1) Cell culture and sample treatment were performed as reported in the literature. The 3-(4,5-dimethylthiazol-2-yl)-2,5-diphenyltetrazolium bromide (MTT) assay for cell viability followed the procedure previously described in the literature. Nitrite determination was carried as described in the literature, and the PGE2 assay was carried as previously described.

Series [2] can be described thus: MTT assay for cell viability / cytotoxicity. Format: cell-based. Particulars: mouse, RAW 264.7 macrophages, means ± SD of three independent experiments. As for the experimental part:
In addition to NO inhibition, the cytotoxic activity of compounds 1a–i, 2a–i, 3a–h, and 4a–h in RAW 264.7 macrophages were measured using the 3-(4,5-dimethylthiazol-2-yl)-2,5-diphenyltetrazolium bromide (MTT) assay to check whether the effects on the production of NO was caused by nonspecific cytotoxicity.
as §1
(Formazan colour is commonly taken as a measure of viable cells.)

Where [3] appears, read: Mus musculus, LPS-induced RAW 264.7 macrophages.
Setting [4] is: Mus musculus, RAW264.7, nitric oxide production, means ± SD of three independent experiments, read-out: NO (IC50).

Structures are written as SMILES. Like-named read-outs stand apart in the source and are kept apart here.

What is called melting point is the temperature of the solid-liquid transition. As to `COc1cccc(-c2nn(-c3ccccc3)cc2-c2ccnc(NCCNS(=O)(=O)c3cccc4ccccc34)c2)c1` [Compound 1i, N-(2-((4-(3-(3-Methoxyphenyl)-1-phenyl-1H-pyrazol-4-yl)pyridin-2-yl)amino)ethyl)naphthalene-1-sulfonamide], the melting point is 178 to 180 °C.
What is called inhibition is the drop in the measured response relative to a control, in per cent. Usually IC50 stands for the midpoint of a concentration-inhibition curve. In series [1] (setting [3]), `COc1cccc(-c2nn(-c3ccccc3)cc2-c2ccnc(NCCCNS(=O)(=O)c3ccc(C(F)(F)F)cc3)c2)c1` [Compound 2g, N-(3-((4-(3-(3-Methoxyphenyl)-1-phenyl-1H-pyrazol-4-yl)pyridin-2-yl)amino)propyl)-4-(trifluoromethyl)benzenesulfonamide] showed an inhibition at 1 µM of 2.91 ± 0.02%, an inhibition at 5 µM of 26.3 ± 1.01% and an inhibition at 10 µM of 56 ± 0.89%. Further, the concentration for half-maximal inhibition (IC50) in series [1] (setting [4]) turned out to be 10.5 ± 0.44 µM. In series [2], the IC50 was 252.6 ± 1.87 µM.
Turning to `COc1cccc(-c2nn(-c3ccccc3)cc2-c2ccnc(NCCCNS(=O)(=O)c3cccc(F)c3)c2)c1` [Compound 2h, 3-Fluoro-N-(3-((4-(3-(3-methoxyphenyl)-1-phenyl-1H-pyrazol-4-yl)pyridin-2-yl)amino)propyl)benzenesulfonamide], in series [1] (setting [3]), testing at 1 µM gave an inhibition of 4.87 ± 0.05%, the inhibition at 5 µM came to 24.1 ± 0.91% and the inhibition at 10 µM was found to be 41.5 ± 1.12%. Further, in series [1] (setting [4]), the IC50 was 9.19 ± 0.25 µM. In series [2], this compound returned a half-inhibitory concentration (IC50) of 246 ± 2.71 µM.
Turning to `COc1cccc(-c2nn(-c3ccccc3)cc2-c2ccnc(NCCCNS(=O)(=O)c3cccc4ccccc34)c2)c1` [Compound 2i, N-(3-((4-(3-(3-Methoxyphenyl)-1-phenyl-1H-pyrazol-4-yl)pyridin-2-yl)amino)propyl)naphthalene-1-sulfonamide], the melting point lay in the range of 134 to 136 °C.
In series [1] (setting [3]), `O=S(=O)(NCCNc1cc(-c2cn(-c3ccccc3)nc2-c2cccc(O)c2)ccn1)c1ccc(C(F)(F)F)cc1` [Compound 3f, N-(2-((4-(3-(3-Hydroxyphenyl)-1-phenyl-1H-pyrazol-4-yl)pyridin-2-yl)amino)ethyl)-4-(trifluoromethyl)benzenesulfonamide] had an inhibition at 1 µM of 6.08 ± 0.07%, an inhibition at 5 µM of 15.2 ± 0.91% and an inhibition at 10 µM of 36.5 ± 0.59%. Also, the IC50 in series [1] (setting [4]) was 22.2 ± 0.31 µM.
For `O=S(=O)(NCCCNc1cc(-c2cn(-c3ccccc3)nc2-c2cccc(O)c2)ccn1)c1ccc(Br)cc1` [Compound 4b, 4-Bromo-N-(3-((4-(3-(3-hydroxyphenyl)-1-phenyl-1H-pyrazol-4-yl)pyridin-2-yl)amino)propyl)benzenesulfonamide], the “Nitric Oxide % Inhibition” value in series [1] (10 µM, LPS-induced RAW 264.7 macrophages) is on record as 63.82 ± 2.14%. For the same compound, in series [1] (setting [3]), the inhibition at 1 µM worked out at 8.19 ± 0.06%, 5 µM produced 22.2 ± 0.72% inhibition and the inhibition at 10 µM was 63.9%. In addition, the half-inhibitory concentration (IC50) in series [1] (setting [4]) was 8.34 ± 0.11 µM. The compound further came in with an IC50 in series [2] of 19.5 ± 0.49 µM.
In the case of `O=S(=O)(NCCCNc1cc(-c2cn(-c3ccccc3)nc2-c2cccc(O)c2)ccn1)c1ccc(F)cc1` [Compound 4d, 4-Fluoro-N-(3-((4-(3-(3-hydroxyphenyl)-1-phenyl-1H-pyrazol-4-yl)pyridin-2-yl)amino)propyl)benzenesulfonamide], in series [1] (setting [3]), the inhibition at 1 µM was 9.02 ± 0.03%, 5 µM produced 20.8 ± 0.36% inhibition and testing at 10 µM gave an inhibition of 48.5 ± 1.79%. Besides, the IC50 in series [1] (setting [4]) was 11.3 ± 0.16 µM. Also, the midpoint of inhibition in series [2], the IC50, lay at 12.6 ± 0.22 µM.
The corresponding values for `O=S(=O)(NCCCNc1cc(-c2cn(-c3ccccc3)nc2-c2cccc(O)c2)ccn1)c1ccc(C(F)(F)F)cc1` [Compound 4f, N-(3-((4-(3-(3-Hydroxyphenyl)-1-phenyl-1H-pyrazol-4-yl)pyridin-2-yl)amino)propyl)-4-(trifluoromethyl)benzenesulfonamide] are 4.87 ± 0.14%, 18.9 ± 1.02%, 53.8 ± 1.87%, 9.45 ± 0.15 µM and 17.7 ± 0.61 µM.
For the compound `CC(=N)NCCCC[C@H](N)C(=O)O` [L-NIL, N^6-(1-Iminoethyl)-L-lysine, reference compound], in series [1] (Mus musculus, RAW264.7, read-out: NO (IC50)), the IC50 stood at 29.32 ± 0.15 µM. In addition, the inhibition at 40 µM in series [1] (Mus musculus, RAW264.7, read-out: Nitric Oxide % Inhibition) came to 77.9 ± 4.25%.
